Measurements as given in patent US11241013B2, “Benzimidazole compounds as agricultural chemicals” (REDAG CROP PROTECTION LTD, priority 2017, dated 2022).

How the values were obtained:
Type in all cases: cell-based
[1] = tested on: Pythium ultimum; test: Amended agar assay; set-up: key to % control Pythium ultimum 2 ppm / % control Pythium ultimum 20 ppm: D: no control detected at this concentration; C: up to 50% control; B: from 50 to 99% control; A: a control of greater than 99%, i.e. no detectable colony growth; conditions: for inhibition of growth at 20 ppm / inhibition of growth at 2 ppm: Globisporangium ultimum; for EC50 Pythium ultimum: amended agar assay, descending concentrations with 5-fold dilutions
Description: (§1) Testing was carried out on potato dextrose agar (PDA) amended with each compound at a test concentration of typically 20 ppm or 2 ppm. Amended agar was poured into three replicate 9 cm petri dishes. Each replicate dish was inoculated in the centre with a 5 mm agar plug taken from the leading edge of a culture aged between 2 and 7 days old; the age of the culture was dependant on the growth rate of the pathogen being tested. The test pathogens were Pythium ultimum and Phytophthora cinnamomi. Plates were incubated at 18° C. and the diameter of each colony measured before growth on the fastest growing plate reached the plate edge. This varied between 2 and 7 days depending on the growth rate of test pathogens. The % reduction in colony growth compared to the control plate was calculated for each pathogen. The results are provided in Table 1, in which D represents no control detected at this concentration; C represents up to 50% control; B from 50 to 99% control; and A represents a control of greater than 99%, i.e. no detectable colony growth.
(§2) Alternatively, or in addition, the same assay was conducted at descending test concentrations with 5-fold dilutions typically down to 0.032 ppm though sometimes as low as 0.00026 ppm, and an EC50 (the concentration at which 50% control would be achieved) was determined. The results are provided in Table 1 in which G represents no control detected at 20 ppm, F represents an EC50 of ≥20 ppm and E represents an EC50 of less than 20 ppm.

[2] = tested on: Phytophthora cinnamomi; test: Amended agar assay; set-up: key to % control Phytophthora cinnamomi 20 ppm: D: no control detected at this concentration; C: up to 50% control; B: from 50 to 99% control; A: a control of greater than 99%, i.e. no detectable colony growth; conditions: for % control Phytophthora cinnamomi 20 ppm: amended PDA agar, % reduction in colony growth vs control plate, 18° C.; for EC50 Phytophthora spp. (marked *: Phytophthora cinnamomi): values marked *: amended agar assay, descending concentrations with 5-fold dilutions
Description: as §1, §2

[3] = tested on: Phytophthora cactorum; test: 96 well plate test; set-up: key: H: no control detected at 20 ppm; G: no control detected at 2 ppm (where the highest test concentration in the assay was 2 ppm); F: an EC50 of ≥20 ppm; an EC50 of less than 20 ppm; conditions: 96 well plate assay, agar amended to 20, 2, 0.2 and 0.02 ppm, assessed after 2 to 3 days
Description: Compounds were screened in 96 well plates with 10 compounds per plate. Each compound was screened using agar amended to 20, 2, 0.2 and 0.02 ppm, with proline at 50 and 10 ppm and 0.2% DMSO used as controls. Each test concentration and standard was replicated twice on a plate. Compounds were screened against Phytophthora cactorum. The agar used in the test is a 1% potato dextrose agar. 1000 spores/mL agar were added to the appropriate agar. A ×10 stock solution in 2% DMSO was produced for each dose i.e. 200, 20, 2 and 0.2 ppm, and 10 μl of this added to the appropriate wells on the plate. An equivalent amount of 2% DMSO and proline stock at 500 and 100 ppm were added for the controls. To each well 90 μl of the appropriate agar spore suspension was added to give the required final well concentrations. Plates were incubated at room temperature (18° C.) and assessed after 2 to 3 days. The amount of pathogen growth in each well was compared to the DMSO controls and an EC50 concentration was calculated. The results are provided in Table 1 in which H represents no control detected at 20 ppm, G represents no control detected at 2 ppm (where the highest test concentration in the assay was 2 ppm), F represents an EC50 of ≥20 ppm, E represents an EC50 of less than 20 ppm.

[4] = amended PDA agar, % reduction in colony growth vs control plate, 18° C.
[5] = amended PDA agar, 2 ppm, % reduction in colony growth vs control plate, 18° C.

SMILES: Cn1nnnc1-n1c(OCc2cccc(N)n2)nc2ccccc21 [Example 1, 6-(((1-(1-Methyl-1H-tetrazol-5-yl)-1H-benzo[d]imidazol-2-yl)oxy)methyl)pyridin-2-amine]
- inhibition of growth at 20 ppm [1, 4]: > 99%
- % control Phytophthora cinnamomi 20 ppm [2]: B (from 50 to 99% control)

SMILES: Cn1nnnc1-n1c(OCc2ccccn2)nc2ccc(F)cc21 [Example 20]
- EC50 Pythium ultimum [1]: E (an EC50 of less than 20 ppm)
- EC50 Phytophthora spp. (marked *: Phytophthora cinnamomi) [2]: E* (an EC50 of less than 20 ppm)

SMILES: Cc1cccnc1-n1c(OCc2ccccn2)nc2ccccc21 [Example 26]
- % control Pythium ultimum 20 ppm [1, 4]: D
- % control Phytophthora cinnamomi 20 ppm [2]: D

SMILES: c1ccc(COc2nc3ccccc3n2-c2ccccn2)nc1 [Example 27]
- inhibition of growth at 20 ppm [1, 4]: < 50%
- % control Phytophthora cinnamomi 20 ppm [2]: D

SMILES: Cn1nnnc1-n1c(OCc2cccc(N)n2)nc2ccc(Br)cc21 [Example 28]
- EC50 Pythium ultimum [1]: E (an EC50 of less than 20 ppm)
- EC50 Phytophthora spp. (marked *: Phytophthora cinnamomi) [2]: E* (an EC50 of less than 20 ppm)

SMILES: Cn1nnnc1-n1c(OCc2ccccn2)nc2ccccc21 [Example 29]
- inhibition of growth at 20 ppm [1, 4]: > 99%
- EC50 Pythium ultimum [1]: E (an EC50 of less than 20 ppm)
- % control Phytophthora cinnamomi 20 ppm [2]: A (a control of greater than 99%, i.e. no detectable colony growth)
- EC50 Phytophthora spp. (marked *: Phytophthora cinnamomi) [2]: E* (an EC50 of less than 20 ppm)

SMILES: Cn1nnnc1-n1c(OCc2cccc(NS(C)(=O)=O)n2)nc2ccccc21 [Example 31, N-(6-(((1-(1-Methyl-1H-tetrazol-5-yl)-1H-benzo[d]imidazol-2-yl)oxy)methyl)pyridin-2-yl)methanesulfonamide]
- % control Pythium ultimum 20 ppm [1, 4]: D
- % control Phytophthora cinnamomi 20 ppm [2]: B (from 50 to 99% control)

SMILES: Clc1cncnc1-c1c(OCc2ccccn2)[nH]c2ccccc12 [Example 33, 3-(5-Chloropyrimidin-4-yl)-2-(pyridin-2-ylmethoxy)-1H-indole]
- inhibition of growth at 20 ppm [1, 4]: < 50%
- % control Phytophthora cinnamomi 20 ppm [2]: B (from 50 to 99% control)

SMILES: Cn1nnnc1-n1c(OCc2cccc(NCc3cccnc3)n2)nc2ccccc21 [Example 41]
- % control Pythium ultimum 2 ppm [1, 5]: D
- EC50 Phytophthora spp. (Phytophthora cactorum) [3]: G

SMILES: Cn1nnnc1-n1c(OCc2cccc(NCc3ccc(C#N)cc3)n2)nc2ccccc21 [Example 46]
- inhibition of growth at 2 ppm [1, 5]: 50 to 99%
- EC50 Phytophthora spp. (Phytophthora cactorum) [3]: G

SMILES: Cn1nnnc1-n1c(OCc2ccc3ccccc3n2)nc2c(Cl)cccc21 [Example 67]
- inhibition of growth at 2 ppm [1, 5]: > 99%
- EC50 Phytophthora spp. (Phytophthora cactorum) [3]: G
